This experiment deals with nursery piglets. Put plainly: Feeding study in weaned nursery piglets. The class given is in vivo, pig. Here is the method:
The test materials used in the study were the Souroubea gilgii and purified betulinic acid. The Souroubea gigli plant samples (labelled SS for Souroubea sp.) were harvested from the canals in Tortuguero, Costa Rica. The samples were chipped, dried and powdered. Samples were dried overnight in a commercial plant drier at 35° C. and ground to 1 mm mesh.
The objective of the study was to investigate the production performance and stress related responses in nursery piglets that were fed a supplemented of either dried Souroubea gilgii plant material (SS) or one of its active anxiolytic compounds, purified betulinic acid (BA). The following parameters were evaluated: (1) plasma levels of Acute Phase Proteins (APP) and cortisol, (2) behavioral and stress related aggressive interactions and injuries (aggressive pushing, number of fights and the duration of fights in seconds), (3) production performance parameters (average daily gain (ADG), feed intake, feed efficiency (kg feed/kg body weight gain)) and (4) health evaluation (incidence of disease, disease treatments and deaths).
The study included 300 piglets that were 21 days of age at the start of the experiment (day of weaning and first day of treatment). The piglets were treated at days 0 and 21 and monitored over a 39 day period. The pigs were 60 days of age at the end of the study. Pigs were randomly assigned to one of five treatment groups, with 60 pigs in each group: (1) Group A. untreated control, (2) Group B. 0.5 mg BA/kg body weight, (3) Group C. 1 mg BA/kg body weight, (4) Group D. 2 mg BA/kg body weight and (5) Group E. SS group, 500 mg ground SS leaves/kg body weight (BA concentration equivalent to 0.5 mg BA/kg body weight).
Blood samples from 8 pigs in each treatment group were drawn on days 0, 2, 7, 14, 21 and 39 for a total of 240 blood samples, to determine plasma APP and cortisol levels. The same pigs from each treatment group were used for each blood sample day. Pigs were also weighed and feed intake was measured on these days to calculate performance parameters.

For the compound `C=C(C)[C@@H]1CC[C@]2(C(=O)O)CC[C@]3(C)[C@H](CC[C@@H]4[C@@]5(C)CC[C@H](O)C(C)(C)[C@@H]5CC[C@]43C)[C@@H]12` [BA, betulinic acid], the number of wounds entry (2 mg/kg (Group D)) is “appeared to reduce”. In addition, under “BA doses below 2 mg/kg”, the “aggressive behavior and extent of injuries” value was “little effect”. The plasma cortisol levels entry reads like this: (day 2, Group C 1 mg/kg BA, vs Groups A and B, p<0.01) “significantly lower”; (day 2, Group D 2 mg/kg BA, vs Groups A and B, p<0.01) “significantly lower”; (days 7 and 14, Group D 2 mg BA/kg, vs Group A, p<0.05) “significantly lower”; (first 14 days post-weaning, 2 mg BA/kg) “significantly reduced”. For the same compound, the “dose required to reduce plasma cortisol in the first days after weaning” value (piglets) is on record as 1 mg BA/kg.

For the origin of these results see patent publication US10004773B2, “Plant compositions and methods and uses thereof for treating elevated glucocorticoid related disorders, and anxiety” (University of Ottawa, priority 2012, dated 2018).
